# Measurements as given in PubChem BioAssay (NCI).
#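 Abbreviation: GI50, concentration required for 50% inhibition of growth. Definition used: TGI = concentration required for complete inhibition of growth.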
# Tests used:
# Test in all cases: growth of human tumour cells (NCI), 384-well format
# 786-0 renal = tested on: 786-0 renal
# A498 renal = tested on: A498 renal
# A549 NSCLC = tested on: A549 NSCLC
# ACHN renal = tested on: ACHN renal
# BT-549 breast = tested on: BT-549 breast
# CAKI-1 renal = tested on: CAKI-1 renal
# CCRF-CEM leukemia = tested on: CCRF-CEM leukemia
# COLO 205 colon = tested on: COLO 205 colon
# DU-145 prostate = tested on: DU-145 prostate
# EKVX NSCLC = tested on: EKVX NSCLC
# HCC-2998 colon = tested on: HCC-2998 colon
# HCT-116 colon = tested on: HCT-116 colon
# HCT-15 colon = tested on: HCT-15 colon
# HL-60(TB) leukemia = tested on: HL-60(TB) leukemia
# HOP-62 NSCLC = tested on: HOP-62 NSCLC
# HOP-92 NSCLC = tested on: HOP-92 NSCLC
# HS 578T breast = tested on: HS 578T breast
# HT29 colon = tested on: HT29 colon
# IGROV1 ovarian = tested on: IGROV1 ovarian
# K-562 leukemia = tested on: K-562 leukemia
# KM12 colon = tested on: KM12 colon
# LOX IMVI melanoma = tested on: LOX IMVI melanoma
# M14 melanoma = tested on: M14 melanoma
# MALME-3M melanoma = tested on: MALME-3M melanoma
# MCF7 breast = tested on: MCF7 breast
# MDA-MB-231 breast = tested on: MDA-MB-231 breast
# MDA-MB-435 melanoma = tested on: MDA-MB-435 melanoma
# MDA-MB-468 breast = tested on: MDA-MB-468 breast
# MOLT-4 leukemia = tested on: MOLT-4 leukemia
# NCI-H226 lung = tested on: NCI-H226 lung
# NCI-H23 lung = tested on: NCI-H23 lung
# NCI-H322M lung = tested on: NCI-H322M lung
# NCI-H460 NSCLC = tested on: NCI-H460 NSCLC
# NCI-H522 lung = tested on: NCI-H522 lung
# NCI/ADR-RES ovarian = tested on: NCI/ADR-RES ovarian
# OVCAR-3 ovarian = tested on: OVCAR-3 ovarian
# OVCAR-4 ovarian = tested on: OVCAR-4 ovarian
# OVCAR-8 ovarian = tested on: OVCAR-8 ovarian
# PC-3 prostate = tested on: PC-3 prostate
# RPMI-8226 leukemia = tested on: RPMI-8226 leukemia
# RXF 393 renal = tested on: RXF 393 renal
# SF-268 CNS = tested on: SF-268 CNS
# SF-295 CNS = tested on: SF-295 CNS
# SF-539 CNS = tested on: SF-539 CNS
# SK-MEL-28 melanoma = tested on: SK-MEL-28 melanoma
# SK-MEL-5 melanoma = tested on: SK-MEL-5 melanoma
# SK-OV-3 ovarian = tested on: SK-OV-3 ovarian
# SN12C renal = tested on: SN12C renal
# SNB-19 CNS = tested on: SNB-19 CNS
# SNB-75 CNS = tested on: SNB-75 CNS
# SR leukemia = tested on: SR leukemia
# SW-620 colon = tested on: SW-620 colon
# T-47D breast = tested on: T-47D breast
# TK-10 renal = tested on: TK-10 renal
# U251 glioblastoma = tested on: U251 glioblastoma
# UACC-257 melanoma = tested on: UACC-257 melanoma
# UACC-62 melanoma = tested on: UACC-62 melanoma
# UO-31 renal = tested on: UO-31 renal
smiles,measurement,setting,value
N#CC1(c2ccc(NC(=O)c3cccnc3NCc3ccncc3)cc2)CCCC1,GI50,786-0 renal,4.39 µM
same,TGI,786-0 renal,15.5 µM
same,GI50,A498 renal,7.95 µM
same,TGI,A498 renal,20.5 µM
same,GI50,A549 NSCLC,12.1 µM
same,TGI,A549 NSCLC,25.5 µM
same,GI50,ACHN renal,13.7 µM
same,TGI,ACHN renal,36.2 µM
same,GI50,BT-549 breast,8.33 µM
same,TGI,BT-549 breast,22.9 µM
same,GI50,CAKI-1 renal,11.7 µM
same,TGI,CAKI-1 renal,25 µM
same,GI50,CCRF-CEM leukemia,4.22 µM
same,TGI,CCRF-CEM leukemia,17.6 µM
same,GI50,COLO 205 colon,13.4 µM
same,TGI,COLO 205 colon,37.6 µM
same,GI50,DU-145 prostate,12.3 µM
same,TGI,DU-145 prostate,33.5 µM
same,GI50,EKVX NSCLC,6.32 µM
same,TGI,EKVX NSCLC,25.8 µM
same,GI50,HCC-2998 colon,5.87 µM
same,TGI,HCC-2998 colon,17.3 µM
same,GI50,HCT-116 colon,10.6 µM
same,TGI,HCT-116 colon,22.4 µM
same,GI50,HCT-15 colon,3.17 µM
same,TGI,HCT-15 colon,12.5 µM
same,GI50,HL-60(TB) leukemia,2.05 µM
same,TGI,HL-60(TB) leukemia,3.76 µM
same,GI50,HOP-62 NSCLC,11.2 µM
same,TGI,HOP-62 NSCLC,23.7 µM
same,GI50,HOP-92 NSCLC,10.3 µM
same,TGI,HOP-92 NSCLC,23.8 µM
same,GI50,HS 578T breast,3.38 µM
same,TGI,HS 578T breast,15.2 µM
same,GI50,HT29 colon,3.99 µM
same,TGI,HT29 colon,12.6 µM
same,GI50,IGROV1 ovarian,13.7 µM
same,TGI,IGROV1 ovarian,31 µM
same,GI50,K-562 leukemia,2.88 µM
same,TGI,K-562 leukemia,12.2 µM
same,GI50,KM12 colon,13 µM
same,TGI,KM12 colon,26.5 µM
same,GI50,LOX IMVI melanoma,13.3 µM
same,TGI,LOX IMVI melanoma,26.1 µM
same,GI50,M14 melanoma,12.6 µM
same,TGI,M14 melanoma,30 µM
same,GI50,MALME-3M melanoma,3.09 µM
same,TGI,MALME-3M melanoma,13.2 µM
same,GI50,MCF7 breast,5.9 µM
same,TGI,MCF7 breast,21.2 µM
same,GI50,MDA-MB-231 breast,4.96 µM
same,TGI,MDA-MB-231 breast,20.3 µM
same,GI50,MDA-MB-435 melanoma,14.5 µM
same,TGI,MDA-MB-435 melanoma,28.2 µM
same,GI50,MDA-MB-468 breast,3.62 µM
same,TGI,MDA-MB-468 breast,14.3 µM
same,GI50,MOLT-4 leukemia,4.64 µM
same,TGI,MOLT-4 leukemia,17.3 µM
same,GI50,NCI-H226 lung,11 µM
same,TGI,NCI-H226 lung,27.5 µM
same,GI50,NCI-H23 lung,9.55 µM
same,TGI,NCI-H23 lung,23.1 µM
same,GI50,NCI-H322M lung,12.2 µM
same,TGI,NCI-H322M lung,31.2 µM
same,GI50,NCI-H460 NSCLC,7.74 µM
same,TGI,NCI-H460 NSCLC,20.3 µM
same,GI50,NCI-H522 lung,10.5 µM
same,TGI,NCI-H522 lung,22.5 µM
same,GI50,NCI/ADR-RES ovarian,11 µM
same,TGI,NCI/ADR-RES ovarian,27.2 µM
same,GI50,OVCAR-3 ovarian,9.01 µM
same,TGI,OVCAR-3 ovarian,21.7 µM
same,GI50,OVCAR-4 ovarian,11.7 µM
same,TGI,OVCAR-4 ovarian,30.1 µM
same,GI50,OVCAR-8 ovarian,11.1 µM
same,TGI,OVCAR-8 ovarian,24.7 µM
same,GI50,PC-3 prostate,9.47 µM
same,TGI,PC-3 prostate,23.1 µM
same,GI50,RPMI-8226 leukemia,1.95 µM
same,TGI,RPMI-8226 leukemia,5.66 µM
same,GI50,RXF 393 renal,1.84 µM
same,TGI,RXF 393 renal,5.83 µM
same,GI50,SF-268 CNS,12.9 µM
same,TGI,SF-268 CNS,27.2 µM
same,GI50,SF-295 CNS,9.76 µM
same,TGI,SF-295 CNS,21.5 µM
same,GI50,SF-539 CNS,4.43 µM
same,TGI,SF-539 CNS,19.2 µM
same,GI50,SK-MEL-28 melanoma,13.8 µM
same,TGI,SK-MEL-28 melanoma,40.6 µM
same,GI50,SK-MEL-5 melanoma,2.82 µM
same,TGI,SK-MEL-5 melanoma,13 µM
same,GI50,SK-OV-3 ovarian,12.1 µM
same,TGI,SK-OV-3 ovarian,24.6 µM
same,GI50,SN12C renal,7.37 µM
same,TGI,SN12C renal,25.3 µM
same,GI50,SNB-19 CNS,14.3 µM
same,TGI,SNB-19 CNS,28.9 µM
same,GI50,SNB-75 CNS,7.08 µM
same,TGI,SNB-75 CNS,20.7 µM
same,GI50,SR leukemia,2.45 µM
same,TGI,SR leukemia,4.9 µM
same,GI50,SW-620 colon,8.06 µM
same,TGI,SW-620 colon,20 µM
same,GI50,T-47D breast,2.75 µM
same,TGI,T-47D breast,14.5 µM
same,GI50,TK-10 renal,11.2 µM
same,TGI,TK-10 renal,28.8 µM
same,GI50,U251 glioblastoma,12.6 µM
same,TGI,U251 glioblastoma,25.1 µM
same,GI50,UACC-257 melanoma,10.4 µM
same,TGI,UACC-257 melanoma,25.1 µM
same,GI50,UACC-62 melanoma,10.9 µM
same,TGI,UACC-62 melanoma,22.9 µM
same,GI50,UO-31 renal,12.6 µM
same,TGI,UO-31 renal,25.2 µM
